In US20230293599A1, “BACTERIAL COMPOSITIONS WITH ANTI-INFLAMMATORY ACTIVITY” (Universiteit Gent, priority 2020, published 2023):
Like-named read-outs stand apart in the source and are kept apart here. Residues, ends and D or L forms follow the SMILES beside them.

How the values were obtained:
S. aureus = type: cell-based, Staphylococcus aureus
Description: (§1) Using Phenotype Microarray (PM) panels (Biolog), the influence of 190 carbon sources on the growth of the potential probiotic species R. mucilaginosa, R. dentocariosa, R. gilardii, G. haemolysans, and common respiratory pathogens P. aeruginosa, and S. aureus was determined. PM1 and PM2 panels (Biolog) were inoculated according to the manufacturer's instructions. Growth curves were generated for 35 hours by measuring the absorbance at 590 nm using an EnVision (Perkin Elmer) plate reader.

P. aeruginosa = assay: Biolog Phenotype Microarray PM1-2 growth on carbon sources; type: cell-based, Pseudomonas aeruginosa
Description: as §1

R. dentocariosa = assay: as above; type: cell-based, Rothia dentocariosa
Description: as §1

R. mucilaginosa = assay: as above; type: cell-based, Rothia mucilaginosa; details: for growth of R. mucilaginosa on the carbon source (in words): AUC lower than 50 = not supporting growth
Description: as §1

R. gilardii = assay: as above; type: cell-based, Roseomonas gilardii
Description: as §1

[1] = 35 hours, absorbance 590 nm, n = 1, cells without values AUC < 50
[2] = AUC lower than 50 = not supporting growth

O=P(O)(O)OCC(O)CO (racemic) [D,L-α-Glycerol-Phosphate]
growth of S. aureus on the carbon source (in words) (S. aureus): not or only minimally supporting growth | AUC of growth curve, P. aeruginosa (P. aeruginosa; [1]): 114.5 | growth of P. aeruginosa on the carbon source (in words) (P. aeruginosa; [2]): not or only minimally supporting growth | AUC of growth curve, R. dentocariosa (R. dentocariosa; [1]): 271.8 | growth of R. dentocariosa on the carbon source (in words) (R. dentocariosa; [2]): enable growth | AUC of growth curve, R. mucilaginosa (R. mucilaginosa; [1]): 247.7 | growth of R. mucilaginosa on the carbon source (in words) (R. mucilaginosa): enable growth

CC(=O)CC(=O)O [Acetoacetic Acid]
AUC of growth curve, S. aureus (S. aureus): 928.3 | AUC of growth curve, P. aeruginosa (P. aeruginosa; [1]): 301.3 | AUC of growth curve, R. dentocariosa (R. dentocariosa; [1]): 229.8 | AUC of growth curve, R. gilardii (R. gilardii; [1]): 172.4 | AUC of growth curve, R. mucilaginosa (R. mucilaginosa; [1]): 301.4

O=C(O)CC(Br)C(=O)O (stereo not shown) [Bromo Succinic Acid]
AUC of growth curve, S. aureus (S. aureus): 430.7 | AUC of growth curve, P. aeruginosa (P. aeruginosa; [1]): 102.6 | AUC of growth curve, R. dentocariosa (R. dentocariosa; [1]): 808.4 | AUC of growth curve, R. gilardii (R. gilardii; [1]): 67.3

C[C@@H](O)[C@H](O)[C@H](O)[C@@H](O)C=O [D-Fucose]
AUC of growth curve, S. aureus (S. aureus): 138.3 | AUC of growth curve, P. aeruginosa (P. aeruginosa; [1]): 91.3 | AUC of growth curve, R. dentocariosa (R. dentocariosa; [1]): 119.9 | AUC of growth curve, R. gilardii (R. gilardii; [1]): 71.4

O=C[C@H](O)[C@@H](O)[C@@H](O)[C@H](O)CO [D-Galactose]
AUC of growth curve, S. aureus (S. aureus): 834.0 | AUC of growth curve, P. aeruginosa (P. aeruginosa; [1]): 720.0 | AUC of growth curve, R. dentocariosa (R. dentocariosa; [1]): 533.6 | AUC of growth curve, R. gilardii (R. gilardii; [1]): 186.6 | AUC of growth curve, R. mucilaginosa (R. mucilaginosa; [1]): 101.1

OC[C@H]1O[C@H](OCC2O[C@@H](O)[C@H](O)[C@@H](O)[C@@H]2O)[C@H](O)[C@@H](O)[C@H]1O (stereo partly drawn) [D-Melibiose]
AUC of growth curve, S. aureus (S. aureus): 220.2 | AUC of growth curve, R. dentocariosa (R. dentocariosa; [1]): 249.8 | AUC of growth curve, R. gilardii (R. gilardii; [1]): 86.9

O=C(CO)[C@H](O)[C@H](O)[C@H](O)CO [D-Psicose]
AUC of growth curve, S. aureus (S. aureus): 698.5 | AUC of growth curve, P. aeruginosa (P. aeruginosa): 771.3 | AUC of growth curve, R. dentocariosa (R. dentocariosa): 428.2 | AUC of growth curve, R. gilardii (R. gilardii): 86.7 | AUC of growth curve, R. mucilaginosa (R. mucilaginosa): 436.4

O=C(CO)[C@@H](O)[C@@H](O)[C@H](O)CO [D-Tagatose]
AUC of growth curve, S. aureus (S. aureus): 633.2 | AUC of growth curve, P. aeruginosa (P. aeruginosa): 574.0 | AUC of growth curve, R. dentocariosa (R. dentocariosa): 117.7 | AUC of growth curve, R. gilardii (R. gilardii): 75.2

OC[C@H]1O[C@H](O[C@H]2O[C@H](CO)[C@@H](O)[C@H](O)[C@H]2O)[C@H](O)[C@@H](O)[C@@H]1O [D-Trehalose]
AUC of growth curve, S. aureus (S. aureus): 852.9 | growth of P. aeruginosa on the carbon source (in words) (P. aeruginosa; [2]): did not support growth | AUC of growth curve, R. dentocariosa (R. dentocariosa; [1]): 937.7 | growth of R. dentocariosa on the carbon source (in words) (R. dentocariosa; [2]): allowed growth | AUC of growth curve, R. mucilaginosa (R. mucilaginosa; [1]): 572.3 | growth of R. mucilaginosa on the carbon source (in words) (R. mucilaginosa): allowed growth

OCC(O)CO [Glycerol]
AUC of growth curve, S. aureus (S. aureus): 802.4 | AUC of growth curve, P. aeruginosa (P. aeruginosa; [1]): 78.3 | growth of P. aeruginosa on the carbon source (in words) (P. aeruginosa; [2]): did not support growth | AUC of growth curve, R. dentocariosa (R. dentocariosa; [1]): 998.9 | growth of R. dentocariosa on the carbon source (in words) (R. dentocariosa; [2]): allowed growth | AUC of growth curve, R. gilardii (R. gilardii; [1]): 59.0 | AUC of growth curve, R. mucilaginosa (R. mucilaginosa; [1]): 786.8 | growth of R. mucilaginosa on the carbon source (in words) (R. mucilaginosa): allowed growth

NCC(=O)N[C@@H](CCC(=O)O)C(=O)O [Glycyl-L-Glutamic Acid] (H-Gly-Glu-OH)
AUC of growth curve, S. aureus (S. aureus): 871.5 | AUC of growth curve, P. aeruginosa (P. aeruginosa): 285.6 | AUC of growth curve, R. gilardii (R. gilardii): 61.5 | AUC of growth curve, R. mucilaginosa (R. mucilaginosa): 140.3

O=CC(=O)O [Glyoxylic Acid]
AUC of growth curve, R. dentocariosa (R. dentocariosa; [1]): 53.5 | AUC of growth curve, R. gilardii (R. gilardii; [1]): 85.2 | AUC of growth curve, R. mucilaginosa (R. mucilaginosa; [1]): 142.0

C[C@H](O)C(=O)O [L-Lactic Acid]
AUC of growth curve, S. aureus (S. aureus): 773.2 | AUC of growth curve, P. aeruginosa (P. aeruginosa; [1]): 349.6 | AUC of growth curve, R. dentocariosa (R. dentocariosa; [1]): 632.8 | AUC of growth curve, R. gilardii (R. gilardii; [1]): 70.3 | AUC of growth curve, R. mucilaginosa (R. mucilaginosa; [1]): 292.5

O=C(O)[C@@H]1CCCN1 [L-Proline]
AUC of growth curve, S. aureus (S. aureus): 567.9 | AUC of growth curve, P. aeruginosa (P. aeruginosa; [1]): 425.7 | AUC of growth curve, R. dentocariosa (R. dentocariosa; [1]): 1049.5 | AUC of growth curve, R. mucilaginosa (R. mucilaginosa; [1]): 268.5

OC[C@H]1O[C@H](O[C@H]2[C@H](O)[C@@H](O)[C@H](O)O[C@@H]2CO)[C@H](O)[C@@H](O)[C@@H]1O [Maltose]
AUC of growth curve, S. aureus (S. aureus): 867.8 | growth of P. aeruginosa on the carbon source (in words) (P. aeruginosa; [2]): did not support growth | AUC of growth curve, R. dentocariosa (R. dentocariosa; [1]): 977.1 | growth of R. dentocariosa on the carbon source (in words) (R. dentocariosa; [2]): allowed growth | AUC of growth curve, R. mucilaginosa (R. mucilaginosa; [1]): 1052.6 | growth of R. mucilaginosa on the carbon source (in words) (R. mucilaginosa): allowed growth

O=C(O)[C@@H](O)[C@H](O)[C@H](O)[C@@H](O)C(=O)O [Mucic Acid]
AUC of growth curve, S. aureus (S. aureus): 162.5 | AUC of growth curve, R. mucilaginosa (R. mucilaginosa; [1]): 53.4

O=C(O)C(=O)C(C(=O)O)C(O)C(=O)O (stereo not shown) [Oxalomalic Acid]
AUC of growth curve, S. aureus (S. aureus): 691.0 | growth of P. aeruginosa on the carbon source (in words) (P. aeruginosa): did not support growth | AUC of growth curve, R. dentocariosa (R. dentocariosa): 169.4 | growth of R. dentocariosa on the carbon source (in words) (R. dentocariosa): enabled growth | AUC of growth curve, R. gilardii (R. gilardii): 219.2 | growth of R. gilardii on the carbon source (in words) (R. gilardii): enabled growth

OC[C@H]1O[C@H](OC[C@H]2OC(O)(CO)[C@@H](O)[C@@H]2O)[C@H](O)[C@@H](O)[C@@H]1O (stereo partly shown) [Palatinose]
AUC of growth curve, S. aureus (S. aureus): 763.7 | AUC of growth curve, P. aeruginosa (P. aeruginosa; [1]): 514.7 | AUC of growth curve, R. dentocariosa (R. dentocariosa; [1]): 197.4 | AUC of growth curve, R. mucilaginosa (R. mucilaginosa; [1]): 129.4

CCC(=O)O [Propionic Acid]
AUC of growth curve, S. aureus (S. aureus): 235.6 | AUC of growth curve, P. aeruginosa (P. aeruginosa; [1]): 152.1 | AUC of growth curve, R. gilardii (R. gilardii; [1]): 58.6

O=C(O)[C@]1(O)C[C@@H](O)[C@@H](O)[C@H](O)C1 [Quinic Acid]
AUC of growth curve, S. aureus (S. aureus): 255.3 | AUC of growth curve, P. aeruginosa (P. aeruginosa; [1]): 1197.1 | AUC of growth curve, R. gilardii (R. gilardii; [1]): 92.0 | AUC of growth curve, R. mucilaginosa (R. mucilaginosa; [1]): 68.3

OCc1ccccc1O[C@@H]1O[C@H](CO)[C@@H](O)[C@H](O)[C@H]1O [Salicin]
AUC of growth curve, S. aureus (S. aureus): 146.2 | growth of P. aeruginosa on the carbon source (in words) (P. aeruginosa; [2]): did not support growth | AUC of growth curve, R. dentocariosa (R. dentocariosa; [1]): 222.9 | growth of R. dentocariosa on the carbon source (in words) (R. dentocariosa; [2]): stimulated only the growth | AUC of growth curve, R. mucilaginosa (R. mucilaginosa; [1]): 74.0

CCC(C)N (stereo not shown) [Sec-Butylamine]
AUC of growth curve, R. mucilaginosa (R. mucilaginosa; [1]): 67.6

O=C(O)CCC(=O)O [Succinic Acid]
AUC of growth curve, S. aureus (S. aureus): 626.1 | AUC of growth curve, P. aeruginosa (P. aeruginosa; [1]): 348.4 | AUC of growth curve, R. dentocariosa (R. dentocariosa; [1]): 241.8 | AUC of growth curve, R. gilardii (R. gilardii; [1]): 125.7

OC[C@H]1O[C@@](CO)(O[C@H]2O[C@H](CO)[C@@H](O)[C@H](O)[C@H]2O)[C@@H](O)[C@@H]1O [Sucrose]
growth of P. aeruginosa on the carbon source (in words) (P. aeruginosa; [2]): did not support growth | growth of R. dentocariosa on the carbon source (in words) (R. dentocariosa; [2]): allowed growth | growth of R. mucilaginosa on the carbon source (in words) (R. mucilaginosa): allowed growth

O=C(CO)[C@@H](O[C@H]1O[C@H](CO)[C@@H](O)[C@H](O)[C@H]1O)[C@H](O)[C@H](O)CO [Turanose]
AUC of growth curve, S. aureus (S. aureus): 1146.9 | growth of P. aeruginosa on the carbon source (in words) (P. aeruginosa; [2]): did not support growth | AUC of growth curve, R. dentocariosa (R. dentocariosa; [1]): 296.1 | growth of R. dentocariosa on the carbon source (in words) (R. dentocariosa; [2]): stimulated only the growth | AUC of growth curve, R. mucilaginosa (R. mucilaginosa; [1]): 91.9

CO[C@@H]1O[C@H](CO)[C@@H](O)[C@H](O)[C@H]1O [β-Methyl-D-Glucoside]
AUC of growth curve, S. aureus (S. aureus): 779.9 | growth of P. aeruginosa on the carbon source (in words) (P. aeruginosa; [2]): did not support growth | AUC of growth curve, R. dentocariosa (R. dentocariosa; [1]): 405.7 | growth of R. dentocariosa on the carbon source (in words) (R. dentocariosa; [2]): allowed growth | AUC of growth curve, R. gilardii (R. gilardii; [1]): 56.3 | AUC of growth curve, R. mucilaginosa (R. mucilaginosa; [1]): 599.6 | growth of R. mucilaginosa on the carbon source (in words) (R. mucilaginosa): allowed growth

Maltotriose
AUC of growth curve, S. aureus (S. aureus): 943.9 | growth of P. aeruginosa on the carbon source (in words) (P. aeruginosa; [2]): did not support growth | AUC of growth curve, R. dentocariosa (R. dentocariosa; [1]): 1276.1 | growth of R. dentocariosa on the carbon source (in words) (R. dentocariosa; [2]): allowed growth | AUC of growth curve, R. gilardii (R. gilardii; [1]): 54.2 | AUC of growth curve, R. mucilaginosa (R. mucilaginosa; [1]): 1074.7 | growth of R. mucilaginosa on the carbon source (in words) (R. mucilaginosa): allowed growth
